According to patent US7312344B2, “Dimeric isoflavones” (Novogen Research Pty Limited, priority 2001, dated 2007):
Like-named read-outs stand apart in the source and are kept apart here.

Experiments:
[1] = molecular target: T1, recombinant human estrogen receptors-alpha (ER-α) (Homo sapiens, UniProt P03372); assay: Estrogen receptor competitive binding assay (fluorescence polarization kit), ER-α
T1 construct: purchased
T1 sequence (P03372 1-595): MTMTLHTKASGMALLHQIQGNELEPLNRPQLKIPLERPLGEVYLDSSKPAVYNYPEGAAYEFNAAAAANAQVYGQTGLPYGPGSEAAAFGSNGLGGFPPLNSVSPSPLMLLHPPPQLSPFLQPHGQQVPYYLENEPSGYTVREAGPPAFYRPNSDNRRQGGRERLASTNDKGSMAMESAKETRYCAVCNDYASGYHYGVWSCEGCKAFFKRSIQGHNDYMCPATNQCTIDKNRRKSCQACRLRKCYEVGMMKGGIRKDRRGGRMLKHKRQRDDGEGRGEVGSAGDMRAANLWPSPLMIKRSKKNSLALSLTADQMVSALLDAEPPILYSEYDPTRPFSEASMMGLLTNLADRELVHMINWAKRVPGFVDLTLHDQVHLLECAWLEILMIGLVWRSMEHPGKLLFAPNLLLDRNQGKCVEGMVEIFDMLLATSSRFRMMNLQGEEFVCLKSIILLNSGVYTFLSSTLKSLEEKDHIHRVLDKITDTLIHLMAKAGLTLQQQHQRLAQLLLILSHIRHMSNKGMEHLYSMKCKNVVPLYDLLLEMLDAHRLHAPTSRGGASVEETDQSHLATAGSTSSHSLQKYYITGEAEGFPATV
Description: (§1) The ability of the tetraphenolic dimer (Structure 3) and tetraacetoxy dimer (Structure 2) to interact with estrogen receptor alpha and beta was determined using a commercially available estrogen receptor binding kit. This kit employs a competitive binding assay to determine the relative binding affinity of test compounds for recombinant human estrogen receptors-alpha (ER-α) and beta (ER-β). […] The complex is then added to decreasing concentrations of competitor test compounds. The shift in polarization in the presence of test compound is used to determine the relative affinity of test compounds for the estrogen receptor.

[2] = molecular target: T2, recombinant human estrogen receptor beta (ER-β) (Homo sapiens, UniProt Q92731); assay: Estrogen receptor competitive binding assay (fluorescence polarization kit), ER-β
T2 construct: purchased
T2 sequence (Q92731 whole entry): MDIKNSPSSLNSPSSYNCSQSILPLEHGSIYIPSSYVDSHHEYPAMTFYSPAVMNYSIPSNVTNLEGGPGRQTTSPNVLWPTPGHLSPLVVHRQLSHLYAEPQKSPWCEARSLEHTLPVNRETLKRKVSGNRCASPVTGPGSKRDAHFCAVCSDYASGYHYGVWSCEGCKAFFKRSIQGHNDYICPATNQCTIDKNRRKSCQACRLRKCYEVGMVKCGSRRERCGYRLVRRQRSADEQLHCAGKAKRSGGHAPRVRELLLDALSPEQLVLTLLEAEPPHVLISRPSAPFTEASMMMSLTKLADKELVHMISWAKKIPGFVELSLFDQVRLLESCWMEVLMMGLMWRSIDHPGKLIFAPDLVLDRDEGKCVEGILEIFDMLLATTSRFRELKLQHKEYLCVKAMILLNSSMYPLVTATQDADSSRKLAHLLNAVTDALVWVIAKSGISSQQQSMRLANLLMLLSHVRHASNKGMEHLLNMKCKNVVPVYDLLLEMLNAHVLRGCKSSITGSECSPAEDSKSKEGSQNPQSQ
Description: as §1

breast (MCF-7) = assay: Cell cytotoxicity assay (MTT), MCF-7; type: cell-based, human
Description: (§2) The anticancer potential of the tetraphenolic dimer (Structure 3) and the tetraacetoxy dimer (Structure 2) was assessed using a panel of human tumour cell lines, including glioma (C6), prostate (PC3), breast (MCF-7), soft tissue (Kym-1) and lung (NCI-H23 and NCI-H460). The cell cytotoxicity assay was conducted as per the method of Alley et al., 1988. Cell lines are exposed to varying concentrations of test compound for a fixed time. At the conclusion of the assay, the viability of the cell population is determined using the hydrogen acceptor reagent 3-(4,5-dimethylthiazol-2-yl)-2,5 diphenyltetrazolium bromide (MTT). The concentration of compound required to inhibit 50% of cell growth in comparison to a control (IC50) is an indicator of effectiveness of the compound. (i.e. the lower the concentration of compound required to inhibit 50% of normal cell proliferation, the more efficacious).

prostate (PC3) = assay: Cell cytotoxicity assay (MTT), PC3; type: cell-based, human; conditions: read-out: Cell Line IC50 PC3
Description: as §2

lung (NCI-H23) = assay: Cell cytotoxicity assay (MTT), NCI-H23; type: cell-based, human; conditions: read-out: Cell Line IC50 NCI-H23
Description: as §2

glioma (C6) = assay: Cell cytotoxicity assay (MTT), C6 glioma; type: cell-based, human; conditions: Rattus norvegicus, read-out: Cell Line IC50 C6 Glioma
Description: as §2

soft tissue (Kym-1) = assay: Cell cytotoxicity assay (MTT), Kym-1; type: cell-based; conditions: Homo sapiens, read-out: Cell Line IC50 Kym-1
Description: as §2

lung (NCI-H460) = assay: Cell cytotoxicity assay (MTT), NCI-H460; type: cell-based; conditions: Homo sapiens, read-out: Cell Line IC50 NCI-H460
Description: as §2

Row | EC50 ([1]; read-out: concentration required to displace 50% of bound fluorescent estrogen ligand (EC50), ER-alpha) [µM] | EC50 ([2]; read-out: concentration required to displace 50% of bound fluorescent estrogen ligand (EC50), ER-beta) [µM] | Structure (SMILES) | binding to ER-α (in words) [1] | binding to ER-β (in words) [2] | IC50 (breast (MCF-7); read-out: Cell Line IC50 MCF-7) [µM] | IC50 (prostate (PC3)) [µM] | IC50 (lung (NCI-H23)) [µM] | IC50 (breast (MCF-7); Homo sapiens, MCF7, read-out: Cell Line IC50 MCF-7) [µM] | IC50 (prostate (PC3); Homo sapiens) [µM] | IC50 (glioma (C6)) [µM] | IC50 (soft tissue (Kym-1)) [µM] | IC50 (lung (NCI-H460)) [µM] | IC50 (lung (NCI-H23); Homo sapiens) [µM]
1 |  |  | CC(=O)Oc1ccc(C2=Cc3cc(C4c5ccc(OC(C)=O)cc5OCC4c4ccc(OC(C)=O)cc4)c(OC(C)=O)cc3OC2)cc1 (stereo not shown) [Structure 2, Tetraacetoxy 6-(4-(isoflavan-4′,7-diol))-isoflav-3-ene-4′,7-diol] | did not bind | did not bind | 10 ± 5 | 6 | 7.3 |  |  |  |  |  | 
2 | 0.35 ± 0.05 | 0.37 ± 0.05 | Oc1ccc(C2=Cc3cc(C4c5ccc(O)cc5OCC4c4ccc(O)cc4)c(O)cc3OC2)cc1 (stereo not shown) [Structure 3, 6-(4-(Isoflavan-4′,7-diol))-isoflav-3-ene-4′,7-diol] |  |  |  |  |  | 18 ± 2 | 13.5 | 17.5 | 3.2 | 14.4 | 13.5
